experiment: mRNA encapsulation efficiency by Ribogreen RNA assay; format: physicochemical; conditions: Table 2; LNP ionizable lipid/DOPE/cholesterol/DMG-PEG2000 about 50/10/38.5/1.5; eGFP mRNA
Protocol: Lipid based nanoparticles are produced by microfluidic mixing of an mRNA solution in sodium acetate buffer (100 mM, pH4) and lipid solution in a 2:1 volume ratio at a speed of 9 mL/min using the NanoAssemblr Benchtop (Precision Nanosystems). The lipid solution contained a mixture of the ionizable lipid of interest, DSPC, DOPC or DOPE (Avanti), Cholesterol (Sigma) and DMG-PEG2000 (Sunbright GM-020, NOF corporation. The 4 lipids were mixed at 6 different molar ratios. LNPs were dialyzed against TBS (10000 times more TBS volume than LNP volume) using slide-a-lyzer dialysis cassettes (20K MWCO, 3 mL, ThermoFisher). Size, polydispersity and zeta potential were measured with a Zetasizer Nano (Malvern). mRNA encapsulation was measured by standard Ribogreen RNA assay (Invitrogen). […]
LNP formulations were prepared using a modified procedure of a method previously described for siRNA LNP synthesis. All formulations were prepared in a sterile manner with a N/P ratio of 10. All lipid components were dissolved in ethanol at molar ratios of 50:10:38.5:1.5 mol % (ionizable lipid/DSPC/Cholesterol/DMG-PEG2000). DSPC, Cholesterol and DMG-PEG2000 were purchased from Avanti Polar Lipids (Alabaster, Alabama, USA), while the Ionizable lipids are synthesized in-house. The final lipid concentration in ethanol was fixed at 10 mg/mL. E7 mRNA was dissolved in 100 mM acetate buffer (Sigma Aldrich, Saint-Louis, Missouri, USA) pH 4. The ethanol and aqueous phase were combined using a microfluidic mixer (NanoAssemblr® BenchTop (Precision Nanosystems, Vancouver, BC) in a 2:1 (aqueous:ethanol) ratio. Formulations were dialysed afterwards against 1× Sterile TBS pH 7.4 (Sigma Aldrich, Saint-Louis, Missouri, USA) using Slide-A-Lyzer® dialysis cassettes with a MWCO of 20.000 Da (Thermo Scientific, Massachusetts, USA) for 18 hours. Afterwards, the purified formulations were concentrated using Amicon ultra centrifugal filters (EMD Millipore, Massachusetts, USA). Finally, the exact concentration and E.E. % was determined through a Ribogreen Assay prior to final dilution with TBS (100 μg/mL E7 mRNA per formulation. All formulations were characterized for size and PDI using Dynamic Light Scattering Zetasizer Nano-ZS (Malvern Pananlytical Ltd., Malvern, UK) and stored afterwards at 4° C. The physico-chemical characteristics of each formulation can be found in Table 5.

First: CCCCCCCCCCCCN(CCCCCCCCCCCC)C(=O)OCCSSCCOC(=O)NCCN(C)C [S-Adm-Dda]
Second: CCCCCCCCCCCCCCCCCCN(CCCCCCCCCCCCCCCCCC)C(=O)OCCSSCCOC(=O)NCCN(C)C [S-Adm-Dsa]
The “% encap” value of the first is higher: 100% for the first, 98% for the second.

same assay, conditions: Table 3; LNP ionizable lipid/phospholipid/cholesterol/DMG-PEG2000 about 50/10/38.5/1.5; DOPE, except MC-3 with DSPC; eGFP mRNA

Going from `CCCCCCCC/C=C\CCCCCCCC(=O)OCC(CNC(=O)OCCOCCOC(=O)NCCCN1CCCCC1CC)OC(=O)CCCCCCC/C=C\CCCCCCCC` (stereo not drawn) [E-Ac6e-DOg] to `CCCCCCCC/C=C\CCCCCCCC(=O)OCC(CNC(=O)OCCOC(C)(C)OCCOC(=O)NCCCN1CCCCC1CC)OC(=O)CCCCCCC/C=C\CCCCCCCC` (stereo not drawn) [K-Ac6e-DOg], the “% encap” value falls from 100% to 95%.

`CCCCCCCC/C=C\CCCCCCCC(=O)OCC(CNC(=O)OCCOCCOC(=O)NCCN1CCCCCC1)OC(=O)CCCCCCC/C=C\CCCCCCCC` (stereo not drawn) [E-Ac7-Dog] and `CCCCCCCC/C=C\CCCCCCCC(=O)OCC(CNC(=O)OCCOCCOC(=O)NCCN(C)C)OC(=O)CCCCCCC/C=C\CCCCCCCC` (stereo not drawn) [E-Adm-Dog] are the same in “% encap” value: 100% for the first, 100% for the second.

Going from `CCCCCCCC/C=C\CCCCCCCC(=O)OCC(CNC(=O)OCCOC(C)(C)OCCOC(=O)NCCN(C)C)OC(=O)CCCCCCC/C=C\CCCCCCCC` (stereo not drawn) [K-Adm-DOg] to `CCCCCCCC/C=C\CCCCCCCC(=O)OCC(CNC(=O)OCCSSCCOC(=O)NCCN(C)C)OC(=O)CCCCCCC/C=C\CCCCCCCC` (stereo not drawn) [S-Adm-DOg], the “% encap” value rises from 94% to 98%.

For `CCCCCCCCCCCCCCCCCCN(CCCCCCCCCCCCCCCCCC)C(=O)OCCSSCCOC(=O)NCCN(C)C` [S-Adm-Dsa], the “% encap” value was 100%.

same assay, conditions: Table 6 (Example 4, HA mRNA); ionizable lipid/DSPC/Chol/DMG-PEG2000 50/10/38.5/1.5 mol %; N/P 10

Going from `CCCCCCCCC(CCCCCC)C(=O)OCCN(CCOC(=O)C(CCCCCC)CCCCCCCC)C(=O)OCCSSCCOC(=O)NCCN(C)C` (stereo not drawn) [S-Adm-DHDa] to `CCCCCCCCC(CCCCCC)C(=O)OCCN(CCOC(=O)C(CCCCCC)CCCCCCCC)C(=O)OCCSSCCOC(=O)NCCN1CCN(C)CC1` (stereo not drawn) [S-Amp-DHDa], the “E.E. (encapsulation efficiency)” value rises from 98% to 99%.

experiment: LNP size and polydispersity index by Dynamic Light Scattering (Malvern Zetasizer); format: physicochemical; conditions: Table 2; LNP ionizable lipid/DOPE/cholesterol/DMG-PEG2000 about 50/10/38.5/1.5; eGFP mRNA

Going from `CCCCCCCCCCCCN(CCCCCCCCCCCC)C(=O)OCCSSCCOC(=O)NCCN(C)C` [S-Adm-Dda] to `CCCCCCCCCCCCCCCCCCN(CCCCCCCCCCCCCCCCCC)C(=O)OCCSSCCOC(=O)NCCN(C)C` [S-Adm-Dsa], the PDI falls from 0.44 to 0.042.

same assay, conditions: Table 2; LNP ionizable lipid/DOPE/cholesterol/DMG-PEG2000 about 50/10/38.5/1.5; eGFP mRNA, mRNA/ionizable lipid molar ratio 1/10; in nm (unit assumed)

Compared with `CCCCCCCCCCCCN(CCCCCCCCCCCC)C(=O)OCCSSCCOC(=O)NCCN(C)C` [S-Adm-Dda], `CCCCCCCCCCCCCCCCCCN(CCCCCCCCCCCCCCCCCC)C(=O)OCCSSCCOC(=O)NCCN(C)C` [S-Adm-Dsa] is lower in size: 115.3 for the first, 82.11 for the second.

same assay, conditions: Table 3; LNP ionizable lipid/phospholipid/cholesterol/DMG-PEG2000 about 50/10/38.5/1.5; DOPE, except MC-3 with DSPC; eGFP mRNA

First: CCCCCCCC/C=C\CCCCCCCC(=O)OCC(CNC(=O)OCCOCCOC(=O)NCCCN1CCCCC1CC)OC(=O)CCCCCCC/C=C\CCCCCCCC (stereo not drawn) [E-Ac6e-DOg]
Second: CCCCCCCC/C=C\CCCCCCCC(=O)OCC(CNC(=O)OCCOC(C)(C)OCCOC(=O)NCCCN1CCCCC1CC)OC(=O)CCCCCCC/C=C\CCCCCCCC (stereo not drawn) [K-Ac6e-DOg]
The PDI of the first is lower: 0.241 for the first, 0.268 for the second.

First: CCCCCCCC/C=C\CCCCCCCC(=O)OCC(CNC(=O)OCCOCCOC(=O)NCCN1CCCCCC1)OC(=O)CCCCCCC/C=C\CCCCCCCC (stereo not drawn) [E-Ac7-Dog]
Second: CCCCCCCC/C=C\CCCCCCCC(=O)OCC(CNC(=O)OCCOCCOC(=O)NCCN(C)C)OC(=O)CCCCCCC/C=C\CCCCCCCC (stereo not drawn) [E-Adm-Dog]
The PDI of the first is higher: 0.258 for the first, 0.217 for the second.

First: CCCCCCCC/C=C\CCCCCCCC(=O)OCC(CNC(=O)OCCOC(C)(C)OCCOC(=O)NCCN(C)C)OC(=O)CCCCCCC/C=C\CCCCCCCC (stereo not drawn) [K-Adm-DOg]
Second: CCCCCCCC/C=C\CCCCCCCC(=O)OCC(CNC(=O)OCCSSCCOC(=O)NCCN(C)C)OC(=O)CCCCCCC/C=C\CCCCCCCC (stereo not drawn) [S-Adm-DOg]
The PDI of the first is lower: 0.157 for the first, 0.3 for the second.

Work on `CCCCCCCCCCCCCCCCCCN(CCCCCCCCCCCCCCCCCC)C(=O)OCCSSCCOC(=O)NCCN(C)C` [S-Adm-Dsa] yielded a PDI of 0.137.

same assay, conditions: Table 3; LNP ionizable lipid/phospholipid/cholesterol/DMG-PEG2000 about 50/10/38.5/1.5; DOPE, except MC-3 with DSPC; eGFP mRNA; in nm (unit assumed)

Going from `CCCCCCCC/C=C\CCCCCCCC(=O)OCC(CNC(=O)OCCOCCOC(=O)NCCCN1CCCCC1CC)OC(=O)CCCCCCC/C=C\CCCCCCCC` (stereo not drawn) [E-Ac6e-DOg] to `CCCCCCCC/C=C\CCCCCCCC(=O)OCC(CNC(=O)OCCOC(C)(C)OCCOC(=O)NCCCN1CCCCC1CC)OC(=O)CCCCCCC/C=C\CCCCCCCC` (stereo not drawn) [K-Ac6e-DOg], the size rises from 67.3 to 75.8.

Going from `CCCCCCCC/C=C\CCCCCCCC(=O)OCC(CNC(=O)OCCOCCOC(=O)NCCN1CCCCCC1)OC(=O)CCCCCCC/C=C\CCCCCCCC` (stereo not drawn) [E-Ac7-Dog] to `CCCCCCCC/C=C\CCCCCCCC(=O)OCC(CNC(=O)OCCOCCOC(=O)NCCN(C)C)OC(=O)CCCCCCC/C=C\CCCCCCCC` (stereo not drawn) [E-Adm-Dog], the size falls from 93.05 to 59.56.

First: CCCCCCCC/C=C\CCCCCCCC(=O)OCC(CNC(=O)OCCOC(C)(C)OCCOC(=O)NCCN(C)C)OC(=O)CCCCCCC/C=C\CCCCCCCC (stereo not drawn) [K-Adm-DOg]
Second: CCCCCCCC/C=C\CCCCCCCC(=O)OCC(CNC(=O)OCCSSCCOC(=O)NCCN(C)C)OC(=O)CCCCCCC/C=C\CCCCCCCC (stereo not drawn) [S-Adm-DOg]
The size of the first is higher: 91.9 for the first, 68.08 for the second.

In the case of `CCCCCCCCCCCCCCCCCCN(CCCCCCCCCCCCCCCCCC)C(=O)OCCSSCCOC(=O)NCCN(C)C` [S-Adm-Dsa], the size is reported as 91.15.

same assay, conditions: Table 6 (Example 4, HA mRNA); ionizable lipid/DSPC/Chol/DMG-PEG2000 50/10/38.5/1.5 mol %; N/P 10

First: CCCCCCCCC(CCCCCC)C(=O)OCCN(CCOC(=O)C(CCCCCC)CCCCCCCC)C(=O)OCCSSCCOC(=O)NCCN(C)C (stereo not drawn) [S-Adm-DHDa]
Second: CCCCCCCCC(CCCCCC)C(=O)OCCN(CCOC(=O)C(CCCCCC)CCCCCCCC)C(=O)OCCSSCCOC(=O)NCCN1CCN(C)CC1 (stereo not drawn) [S-Amp-DHDa]
The PDI of the first is higher: 0.184 for the first, 0.1515 for the second.

First: CCCCCCCCC(CCCCCC)C(=O)OCCN(CCOC(=O)C(CCCCCC)CCCCCCCC)C(=O)OCCSSCCOC(=O)NCCN(C)C (stereo not drawn) [S-Adm-DHDa]
Second: CCCCCCCCC(CCCCCC)C(=O)OCCN(CCOC(=O)C(CCCCCC)CCCCCCCC)C(=O)OCCSSCCOC(=O)NCCN1CCN(C)CC1 (stereo not drawn) [S-Amp-DHDa]
The size of the first is lower: 79.075 nm for the first, 106.3 nm for the second.

From US20240050574A1, “IONIZABLE LIPIDS” (eTheRNA immunotherapies NV, priority 2020, published 2024)
